These results are taken from paper PMC11801377, “A uniquely efficacious type of CFTR corrector with complementary mode of action” (Science Advances, 2024).

The target in the assay is T1, WT-CFTR (Homo sapiens, UniProt P13569).
T1 construct: host or cells: CFBE41o-
The assay is described as follows: Anti-CFTR immunoblotting (C-band) in CFBE41o- cells expressing WT-CFTR. Type of assay: cell-based. The following applies: 24 h. As to the method: Cystic fibrosis bronchial epithelial (CFBE41o^−) cells stably expressing the human WT CFTR or F508del-CFTR mutant [generated in ([26])] were a gift from J. P. Clancy (University of Alabama, Birmingham) and cultured on fibronectin-coated plates (FNC coating mix; Enzo) in minimum essential medium with Earl’s salt (Thermo Fisher Scientific) containing 10% of heat-inactivated fetal bovine serum (FBS; Gibco), penicillin (100 U/ml), streptomycin ([…]) (Thermo Fisher Scientific), and puromycin (2 μg/ml; Sigma-Aldrich). […]
All cells were washed with ice-cold PBS and then lysed for 1 hour on ice with radioimmunoprecipitation assay (RIPA) buffer (Sigma-Aldrich, #R0278) containing 100 mM Na-fluoride, 4 mM Na-orthovanadate, 1 mM phenylmethylsulfonyl fluoride, 1 mM dithiothreitol, and benzonase (100 U/ml; Sigma-Aldrich). […] Samples were mixed with LDS sample buffer (Invitrogen), resolved by SDS-PAGE on 4 to 12% Novex bis-tris precast gels (Thermo Fisher Scientific), and analyzed by Western blotting using a wet transfer method (GenScript) and polyvinylidene difluoride membranes (Life Technologies). […] Membranes were treated with Western Lightning enhanced chemiluminescence substrate (PerkinElmer), and the chemiluminescence signal was recorded and quantified using a chemiluminescence reader and the corresponding software (Fusion FX 7, Evolution Edge, Vilber). […]
(Immunoblotting shows a protein as a band on a membrane.)

SMILES strings stand for the structures.

T1 sequence (P13569 whole entry): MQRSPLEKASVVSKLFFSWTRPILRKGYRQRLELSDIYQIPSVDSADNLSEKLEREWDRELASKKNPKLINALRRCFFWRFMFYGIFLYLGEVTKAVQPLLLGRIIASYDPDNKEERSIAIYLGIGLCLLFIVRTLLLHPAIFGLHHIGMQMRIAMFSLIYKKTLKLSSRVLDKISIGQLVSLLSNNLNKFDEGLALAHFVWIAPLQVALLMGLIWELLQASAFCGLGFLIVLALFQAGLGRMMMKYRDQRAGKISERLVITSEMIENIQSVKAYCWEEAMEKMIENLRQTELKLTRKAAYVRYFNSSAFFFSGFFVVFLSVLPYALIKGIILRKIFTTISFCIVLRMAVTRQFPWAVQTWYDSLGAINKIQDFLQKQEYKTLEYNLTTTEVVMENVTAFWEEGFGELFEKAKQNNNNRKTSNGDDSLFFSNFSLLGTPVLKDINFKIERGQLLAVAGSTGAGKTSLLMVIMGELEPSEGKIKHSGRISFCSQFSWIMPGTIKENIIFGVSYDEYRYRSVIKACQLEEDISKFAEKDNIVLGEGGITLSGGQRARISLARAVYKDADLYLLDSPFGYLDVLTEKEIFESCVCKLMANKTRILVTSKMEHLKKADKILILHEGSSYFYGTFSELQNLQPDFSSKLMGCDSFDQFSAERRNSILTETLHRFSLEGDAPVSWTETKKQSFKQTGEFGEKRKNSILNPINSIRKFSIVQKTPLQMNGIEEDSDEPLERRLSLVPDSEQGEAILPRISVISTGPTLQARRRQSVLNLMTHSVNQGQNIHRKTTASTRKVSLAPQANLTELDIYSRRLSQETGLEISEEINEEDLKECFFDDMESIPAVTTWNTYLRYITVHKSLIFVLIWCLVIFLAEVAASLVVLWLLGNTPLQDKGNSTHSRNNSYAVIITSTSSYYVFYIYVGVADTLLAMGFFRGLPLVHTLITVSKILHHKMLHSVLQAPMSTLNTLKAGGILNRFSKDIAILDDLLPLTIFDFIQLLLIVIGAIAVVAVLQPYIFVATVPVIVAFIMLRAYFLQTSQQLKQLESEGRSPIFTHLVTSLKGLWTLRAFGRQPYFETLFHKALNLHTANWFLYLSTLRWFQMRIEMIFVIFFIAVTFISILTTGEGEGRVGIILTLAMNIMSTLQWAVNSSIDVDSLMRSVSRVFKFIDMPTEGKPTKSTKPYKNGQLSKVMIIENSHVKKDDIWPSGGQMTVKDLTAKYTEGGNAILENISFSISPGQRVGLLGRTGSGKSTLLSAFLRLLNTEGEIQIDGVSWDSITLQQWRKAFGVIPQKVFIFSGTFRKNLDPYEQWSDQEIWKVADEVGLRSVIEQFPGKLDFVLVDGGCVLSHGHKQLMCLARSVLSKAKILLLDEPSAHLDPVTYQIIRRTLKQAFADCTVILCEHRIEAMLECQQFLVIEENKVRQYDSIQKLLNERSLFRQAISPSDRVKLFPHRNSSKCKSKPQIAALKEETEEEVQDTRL

Regarding `COc1cc(CCNC(=O)C2CC(=O)N(C)C(CC(C)C)C(=O)N3CCCCC3C(=O)NC(Cc3ccccc3)COc3ccc4ncc(F)cc4c3C(=O)N2)on1` (stereo not shown) [IDOR-3], the “increase in WT-CFTR C-band” value is given as ~ 2 fold.
